Test results from patent US5166348A, “Bornyl and isobornyl esters of carboxylic acids of condensed tetrahydroquinoxalines” (Uralsky politekhnichesky institut, priority 1989, dated 1992).
“And” between values parts separate entries of the source, which are not always exact repeats. Equal values may be shown once. “Also recorded” adds a separate entry of the source. Read-outs that look alike come from different tables or passages of the source.

Assays:
influenza virus B = format: in vivo, albino mice; conditions: for % of diseased mice and of died mice / % of diseased mice and died mice / Efficiency, % / Elongation of animal life in test group (compared with control) / Mean Incubation / Protection factor / Elongation of animals life in test group compared with control / Mean incubation period / Factor of reduction of number of diseased mice (protection factor): influenza virus B; for Factor of reduction of number of diseased mice (protection factor): compared with control
[1] = acute toxicity, oral, mongrel albino mice; conditions: mouse, in vivo
Description: Acute toxicity of the proposed compounds 1a through 1e was tested in experiments on mongrel albino mice with oral administration of the drug.

mice [2] = conditions: mouse, in vivo
[3] = tested on: RS virus (strain Novoshakhtinsky 3080); assay: reproduction of RS virus in L-41 tissue culture; format: cell-based
Description: (§1) Activity of the proposed compound 1a to the agent causing respiratory syncytial infection was tested. […]

[4] = tested on: tick-borne encephalitis virus (Absettar strain); format: in vivo, mongrel albino mice
mice [5] = assay: toxicity for mice; conditions: compared with remantadine
[6] = tested on: influenza virus C, C(Leningrad)412/83; format: in vivo, chick embryos
[7] = tested on: influenza virus C, C(USA)1233/47; format: in vivo, chick embryos
viruses = assay: spectrum of antiviral activity, summary
[8] = tested on: influenza virus C, C(Leningrad)393/87; format: in vivo, chick embryos
influenza virus [9] = format: in vivo, mice
RS virus = RS virus reproduction in the lungs of infected cotton rats; format: in vivo; conditions: intranasally
Description: as §1

[10] = tested on: influenza virus C, C(Ulan-Ude)131/86; format: in vivo, chick embryos
influenza virus C = assay: activity against influenza virus C in chick embryos, summary; format: in vivo
Excerpt: The activity of the proposed compound 1a against influenza virus C has been studied.

influenza virus [11] = conditions: given intranasally to pregnant mice + influenza virus
influenza virus [12] = format: in vivo, mice; remark: listed apart in the source
[13] = 0.2 ml of 0.5% solution into the stomach
[14] = 1 mg/mouse, 24 hours and 1 hour before and 24, 48 and 72 hours after infection

For CCC(N)C12CC3CC(CC(C3)C1)C2 (stereo not shown) [adapromine, reference compound], the “% of diseased mice and of died mice” value (influenza virus B; per os, 1 mg per animal) was 25% and 12% and 20%, the “Minimum effective dose against influenza viruses, type B” value (influenza virus B; influenza virus type B) was 1.0 mg/mouse and the “Chemotherapeutic index for influenza viruses, type B” value (influenza virus B; influenza virus type B, toxicity vs minimum effective dose) was 6. The LD50 [1] was 45 mg/kg and the Toxicity for mice (mice [2]) was 6 mg/mouse.

With CC1=C(C(=O)OC2CC3CCC2(C)C3(C)C)C2Nc3ccccc3N(C)C2O1 (stereo not shown) [compound 1a, isobornyl ester of 2,9-dimethyl-3a,4,9,9a-tetrahydrofuro [2,3-b] quinoxaline-3-carboxylic acid] the “% of test tubes with degenerated culture” value ([3]; L-41 tissue culture) was 17%, the “Intensity of reduction of quantity of test tubes with degenerated cultures” value ([3]; L-41 tissue culture) was 0.18 and the “Factor of reduction of quantity of test tubes with degenerated cultures” value ([3]; L-41 tissue culture, vs 0.9% NaCl solution) was 5.3. For the same molecule, the “effect on reproduction of RS virus (in words)” value ([3]; tissue culture L-41, strain Novoshakhtinsky 3030 as printed in text) was “inhibits reproduction of RS virus”, the “Efficiency, %” value [4, 13] was 70% and the “Elongation of animal life in group of treated animals” value [4, 13] was 1.5 days. The “Mean incubation period” value [4, 13] was 11.4 days, the “% of diseased mice and mice which died” value ([4]; 0.2 ml of 0.5% solution into the stomach, 4 h before and 24, 48, 72, 96 h after infection) was 18.7% and the “Factor of reduction of quantity of diseased mice (protective factor)” value ([4]; 0.2 ml of 0.5% solution into the stomach, vs physiological saline control) was 3.3. For the same molecule, the “activity against the causative agent of tick-borne encephalitis (in words)” value ([4]; mouse, in vivo) was “antiviral activity of the compound against the causative agent of tick-borne encephalitis; also recorded: highly active against the causative agent of tick-borne encephalitis”, the mortality rate ([4]; test group, control group 62.5%) was 18.7% and the “decrease of mortality rate, times less” value ([4]; test vs control group) was 3.3 times. For the same molecule, the “toxicity lower than that of remantadine, times” value (mice [5]) was 2.5-3 times, the “Titre of virus (lg) in embryo” value [6] was 3.5 ± 0.3 lg and the “Inhibition of virus reproduction (lg)” value ([6]; vs solvent control) was 1.5 lg. The “Titre of virus (lg) in embryo” value [7] was 2.8 ± 0.4 lg, the “Inhibition of virus reproduction (lg)” value ([7]; vs solvent control) was 1.7 lg and the “% of diseased mice and died mice” value (influenza virus B; [14]) was 20%. For the same molecule, the “Efficiency, %” value (influenza virus B; [14]) was 73%, the “Elongation of animal life in test group (compared with control)” value (influenza virus B; [14]) was 2.4 days and the “Mean Incubation” value (influenza virus B; [14]) was 11.0. For the same molecule, the Protection factor (influenza virus B; [14]) was 3.7, the “% of diseased mice and of died mice” value (influenza virus B; per os, 1 mg per animal) was 20% and the “Efficiency, %” value (influenza virus B; per os, 1 mg per animal) was 73%. The “Elongation of animals life in test group compared with control” value (influenza virus B; per os, 1 mg per animal) was 2.4 days, the “Mean incubation period” value (influenza virus B; per os, 1 mg per animal) was 11.0 days and the “Factor of reduction of number of diseased mice (protection factor)” value (“Factor of reduction … (protection factor)” for short) (influenza virus B; per os, 1 mg per animal) was 3.7. For the same molecule, the “Minimum effective dose against influenza viruses, type B” value (influenza virus B; influenza virus type B) was 0.04 mg/mouse, the “spectrum of antiviral activity (in words)” value (viruses) was “most pronounced effect against the virus of the tick-borne encephalitis, epidemic, influenza viruses A, B and C, including those resistant to remantadine, and also the virus causing respiratory syncytial infection” and the “Titre of virus (lg) in embryo” value [8] was 3.2 ± 0.3 lg. The “Inhibition of virus reproduction (lg)” value ([8]; vs solvent control) was 1.3 lg, the “protection and growth of nurslings, course of infection (in words)” value (influenza virus [9]; mouse, in vivo) was “protects their nurslings from infection and death; moreover, it promotes their normal growth as estimated by gain in weight; also recorded: almost does not differ from the weight of young mice borne from control mice; also recorded: promotes an asymptomatic course of infection in pregnant mice and formation of immunity in their posterity” and the “Mean weight of suckling mice, g, day 0” value (influenza virus [9]; plus influenza virus, day 0) was 1.5 g. The “Mean weight of suckling mice, g, day 3” value (influenza virus [9]; plus influenza virus, day 3) was 2.6 g, the “Mean weight of suckling mice, g, day 5” value (influenza virus [9]; plus influenza virus, day 5) was 3.4 g and the “Mean weight of suckling mice, g, day 7” value (influenza virus [9]; plus influenza virus, day 7) was 3.4 g. The “Mean weight of suckling mice, g, day 9” value (influenza virus [9]; plus influenza virus, day 9) was 3.6 g, the “virus reproduction in the lungs (in words)” value (RS virus) was “decreases the virus reproduction in the lungs of the animals” and the “mean titre of the virus lower than in control group” value (RS virus; lungs, vs control group) was 1.8-2.0 lg. For the same molecule, the “Titre of virus (lg) in embryo” value [10] was 3.6 ± 0.3 lg, the “Inhibition of virus reproduction (lg)” value ([10]; vs solvent control) was 1.6 lg and the “activity against influenza virus C (in words)” value (influenza virus C) was “inhibits reproduction of influenza virus C”. The “Mortality rate among suckling mice, %, 4 days after infection” value (influenza virus [11]; 4 days) was 0%, the “Mortality rate among suckling mice, %, 7 days after infection” value (influenza virus [11]; 7 days) was 7% and the “Mortality rate among suckling mice, %, 8 days after infection” value (influenza virus [11]; 8 days) was 23%. The “Mortality rate among suckling mice, %, 11 days after infection” value (influenza virus [11]; 11 days) was 23%, the “% of lethal cases among mice after infection of their mothers, in 6 days” value (influenza virus [12]; given to female mice + virus, 6 days) was 3% and the “% of lethal cases among mice after infection of their mothers, in 7 days” value (influenza virus [12]; given to female mice + virus, 7 days) was 10%. The “% of lethal cases among mice after infection of their mothers, in 8 days” value (influenza virus [12]; given to female mice + virus, 8 days) was 10%, the “% of lethal cases among mice after infection of their mothers, in 9 days” value (influenza virus [12]; given to female mice + virus, 9 days) was 10% and the “% of lethal cases among mice after infection of their mothers, in 10 days” value (influenza virus [12]; given to female mice + virus, 10 days) was 13%. For the same molecule, the “protection of sucklings (in words)” value (influenza virus [12]; given to pregnant or nursing mice) was “protects the sucklings from trasnplacental infection with the virus or infection from a diseased mouse” and the Toxicity for mice (mice [2]) was 16 mg/mouse.

In the case of CCN1c2ccccc2NC2C(C(=O)OC3CC4CCC3(C)C4(C)C)=C(C)OC21 (stereo not shown) [compound 1b, isobornyl ester of 2-methyl-9-ethyl-3a,4,9,9a-tetrahydrofuro [2,3-b] quinoxaline-3-carboxylic acid], the “% of diseased mice and of died mice” value (influenza virus B; per os, 1 mg per animal) is reported as 27%, the “Efficiency, %” value (influenza virus B; per os, 1 mg per animal) is reported as 65% and the “Elongation of animals life in test group compared with control” value (influenza virus B; per os, 1 mg per animal) is reported as 2.2 days. For the same molecule, the “Mean incubation period” value (influenza virus B; per os, 1 mg per animal) was 10.0 days and the “Factor of reduction … (protection factor)” value (influenza virus B; per os, 1 mg per animal) was 2.9.

For CCN1c2ccccc2NC2C(C(=O)OC3CC4CCC3(C)C4(C)C)=C(C)OC21 (stereo not shown) [compound 1c, bornyl-2-methyl-9-ethyl-3a,4,9,9a-tetrahydrofuro [2,3-b] quinoxaline-3-carboxylate], the “% of diseased mice and of died mice” value (influenza virus B; per os, 1 mg per animal) was 25%, the “Efficiency, %” value (influenza virus B; per os, 1 mg per animal) was 64% and the “Elongation of animals life in test group compared with control” value (influenza virus B; per os, 1 mg per animal) was 2.4 days. The “Mean incubation period” value (influenza virus B; per os, 1 mg per animal) was 11.0 days and the “Factor of reduction … (protection factor)” value (influenza virus B; per os, 1 mg per animal) was 2.8.

For CC(N)C12CC3CC(CC(C3)C1)C2 (stereo not shown) [remantadine, reference compound], the “% of diseased mice and died mice” value (influenza virus B; [14]) was 20%, the “Efficiency, %” value (influenza virus B; [14]) was 73% and the “Elongation of animal life in test group (compared with control)” value (influenza virus B; [14]) was 2.3 days. The “Mean Incubation” value (influenza virus B; [14]) was 10.9, the Protection factor (influenza virus B; [14]) was 3.7 and the LD50 [1] was 640 mg/kg. It also gave a Toxicity for mice (mice [2]) of 6 mg/mouse.

For “bornyl-3a,5-dimethyl-2-phenyl-3a,4,4a,5,10,10a-hexahydro-1,3,4-thiadiazole[2,3-a] quinoxaline (2,3-d) pyrrole-4-carboxylate [compound 1d]”, the “% of diseased mice and of died mice” value (influenza virus B; per os, 1 mg per animal) was 20%, the “Efficiency, %” value (influenza virus B; per os, 1 mg per animal) was 72% and the “Elongation of animals life in test group compared with control” value (influenza virus B; per os, 1 mg per animal) was 2.5 days. The “Mean incubation period” value (influenza virus B; per os, 1 mg per animal) was 11.0 days and the “Factor of reduction … (protection factor)” value (influenza virus B; per os, 1 mg per animal) was 3.6.

In the case of “isobornyl 3a,5-dimethyl-2-phenyl-3a,4,4a,5,10,10a-hexahydro-1,3,4-thiadiazole [2,3-a] quinoxaline [2,3-d]-pyrrole-4-carboxylate [compound 1e]”, the “% of diseased mice and of died mice” value (influenza virus B; per os, 1 mg per animal) is reported as 21%, the “Efficiency, %” value (influenza virus B; per os, 1 mg per animal) is reported as 71% and the “Elongation of animals life in test group compared with control” value (influenza virus B; per os, 1 mg per animal) is reported as 2.4 days. For the same molecule, the “Mean incubation period” value (influenza virus B; per os, 1 mg per animal) was 10.9 days and the “Factor of reduction … (protection factor)” value (influenza virus B; per os, 1 mg per animal) was 3.4.
